Experimental findings from patent US20250346597A1, “CONDENSED HETEROCYCLIC COMPOUNDS AS INHIBITOR OF DIACYLGLYCEROL KINASES” (BEONE MEDICINES I GMBH, priority 2023, published 2025) are described below.

Some results are limits rather than exact numbers.

For one assay, the target named is DGKα (Homo sapiens (Human), UniProt P23743). Put plainly: Biochemical DGK IC50 assay (ADP-Glo, lipid micelle substrate), DGKα. Also: full length DGKα 7.5 nM. To be noted: full length DGKα […], ATP 140 μM, DAG 80 μM. As to the method: (§1) Enzymatic reactions of DGKζ, DGKα and DGKδ were performed using ADP-Glo assay with lipid micelle substrate. […] Full length DGKα (D21-10BG, SignalChem) and full length DGKδ (D23-10G, SignalChem) were purchased. Lipid micelle was prepared by dissolving DAG (Sigma, 317505-10MG) and PS (Sigma, P7769-100MG) with chloroform which was furtherly removed by rotary evaporation. The resulted product was resuspended in buffer containing 25 mM HEPES pH 7.0, 0.5 mM EDTA and 160 mM Octyl P-D glucopyranoside by vigorous mixing and ultrasonic (IID, Scientz).
DGKα, sequence (P23743 whole entry): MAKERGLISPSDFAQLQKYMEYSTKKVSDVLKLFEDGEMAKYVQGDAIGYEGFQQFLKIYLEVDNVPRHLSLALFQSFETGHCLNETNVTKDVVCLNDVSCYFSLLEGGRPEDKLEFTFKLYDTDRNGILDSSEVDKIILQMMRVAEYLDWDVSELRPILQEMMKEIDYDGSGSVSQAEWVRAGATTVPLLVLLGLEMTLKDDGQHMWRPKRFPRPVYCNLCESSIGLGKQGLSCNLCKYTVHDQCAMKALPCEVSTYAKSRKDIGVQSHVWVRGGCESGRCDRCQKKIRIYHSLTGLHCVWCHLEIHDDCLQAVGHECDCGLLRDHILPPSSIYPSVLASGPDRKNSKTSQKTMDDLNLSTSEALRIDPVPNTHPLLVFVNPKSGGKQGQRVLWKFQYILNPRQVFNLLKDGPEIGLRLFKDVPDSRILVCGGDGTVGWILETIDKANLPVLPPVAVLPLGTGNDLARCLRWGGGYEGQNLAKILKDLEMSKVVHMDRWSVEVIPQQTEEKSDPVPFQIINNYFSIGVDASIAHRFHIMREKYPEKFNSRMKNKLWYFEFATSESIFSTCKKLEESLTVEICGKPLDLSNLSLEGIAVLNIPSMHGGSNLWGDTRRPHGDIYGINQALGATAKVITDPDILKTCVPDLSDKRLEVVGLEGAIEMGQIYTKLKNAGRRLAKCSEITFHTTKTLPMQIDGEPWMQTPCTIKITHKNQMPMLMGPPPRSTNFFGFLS
(§2) The inhibition activities testing for the compound disclosed herein were carried out at room temperature in assay buffer containing 50 mM HEPES, 10 mM MgCl2, 0.01% BSA, 0.1 mM Na3VO4, 0.005% Tween-20 and 0.01 mM CaCl2. Compounds in DMSO were dispensed into wells of a black 384 well plate (Corning 4514) using D300e digital dispenser (Tecan). […] 3 μL 2× enzyme solution was added to wells. […] After 1 hour reaction, 5 μL ADP-Glo reagent (Promga V9101) was added and incubated for 40 minutes. 10 μL Kinase Detection reagent was added and incubated for 30 minutes. Luminescence was measured on a microplate reader (PHERAstar FSX, BMG labtech). The IC50s are calculated based on inhibition of enzyme activity in the presence of increasing concentrations of compounds.

In a further assay the target is DGKζ (Homo sapiens (Human), UniProt Q13574). Put plainly: Biochemical DGK IC50 assay (ADP-Glo, lipid micelle substrate), DGKζ. To be noted: full length DGKζ 0.5 nM, ATP 140 μM, DAG 80 μM. As to the method: as §1, §2
DGKζ, sequence (Q13574 other isoform, or with tags, fused parts or gaps): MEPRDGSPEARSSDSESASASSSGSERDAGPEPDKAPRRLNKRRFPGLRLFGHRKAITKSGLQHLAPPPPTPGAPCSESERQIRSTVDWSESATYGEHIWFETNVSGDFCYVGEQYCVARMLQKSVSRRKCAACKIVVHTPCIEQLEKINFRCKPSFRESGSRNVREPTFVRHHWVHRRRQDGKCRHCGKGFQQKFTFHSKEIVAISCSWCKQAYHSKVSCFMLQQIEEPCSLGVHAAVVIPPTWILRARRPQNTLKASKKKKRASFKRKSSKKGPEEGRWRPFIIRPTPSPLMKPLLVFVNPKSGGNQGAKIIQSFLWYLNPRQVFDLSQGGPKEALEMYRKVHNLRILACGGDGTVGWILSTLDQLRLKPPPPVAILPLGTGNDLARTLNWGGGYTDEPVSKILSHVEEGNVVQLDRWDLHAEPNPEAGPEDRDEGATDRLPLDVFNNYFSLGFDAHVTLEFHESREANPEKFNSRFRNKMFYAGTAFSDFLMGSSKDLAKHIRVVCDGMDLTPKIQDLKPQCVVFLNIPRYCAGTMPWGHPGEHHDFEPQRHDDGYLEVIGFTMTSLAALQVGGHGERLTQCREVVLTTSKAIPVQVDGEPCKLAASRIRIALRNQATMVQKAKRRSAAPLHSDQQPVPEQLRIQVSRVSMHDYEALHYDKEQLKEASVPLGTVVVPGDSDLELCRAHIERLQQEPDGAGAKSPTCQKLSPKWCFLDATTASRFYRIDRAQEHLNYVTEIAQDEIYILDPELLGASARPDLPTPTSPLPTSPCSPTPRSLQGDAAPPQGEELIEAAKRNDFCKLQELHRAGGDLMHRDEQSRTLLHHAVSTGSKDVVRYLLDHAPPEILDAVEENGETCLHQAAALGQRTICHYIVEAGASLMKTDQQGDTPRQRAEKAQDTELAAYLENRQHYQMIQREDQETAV
Human His-TEV-DGK-zeta-pFastBac1 and human baculovirus samples was generated using the Bac-to-Bac baculovirus expression system (Invitrogen) according to the manufacturer's protocol. The DNA used for expression of DGK-zeta, have SEQ ID Nos: 1. Baculovirus amplification was achieved using infected SF9 cells at 1:2000 virus/cells ratios, and grown for 96 hours at 27° C. post-transfected.
The expression scaled up for each protein was carried out in the […] from CORNING. 4 L of 3×10^6 cells/mL Sf9 cells (Expression System, Invitrogen) grown in SF900™ II SFM insect medium (Expression System) was infected with virus stock at 1:200 virus/cells ratio, and grown for 48 hours at 27° C. post-transfection. The infected cell culture was harvested by centrifugation at 6000 rpm for 15 min 4° C. in a SORVALL LYNX6000 centrifuge. The cell pellets were stored at −80° C.
Full length human DGKζ produced as described above, was purified from Sf9 baculovirus-infected insect cell paste. The cells were lysed using sonication method, and the lysates were clarified by centrifugation.

Broadly, the IC50 is the midpoint of a concentration-inhibition curve. A low value points to greater potency. As for `CC[C@H]1CN(C(C)c2ccc(C(=O)N3CC(OC)C3)cc2)[C@H](CC)CN1c1cc(=O)n(C)c2cn(CC#N)nc12` (single isomer, unassigned) [Compound A1a], the results for the IC50 on DGKα and at DGKζ were 23 nM and 1440 nM, respectively.

`CC[C@H]1CN(C(C)c2ccc(C(=O)N3CC(OC)C3)cc2)[C@H](CC)CN1c1cc(=O)n(C)c2cn(CC#N)nc12` (single isomer, unassigned) [Compound A1b]: the IC50 against DGKα was 734 nM; against DGKζ it was over 10000 nM.

Regarding `CC[C@H]1CN(C(C)c2cc(F)c(C(=O)N(C)C)c(F)c2)[C@H](CC)CN1c1cc(=O)n(C)c2cn(CC#N)nc12` (single isomer, unassigned) [Compound A3a], the IC50 at DGKα amounted to 13600 nM; on DGKζ it was 227 nM.

Consider `CC[C@H]1CN(C(C)c2cc(F)c(C(=O)N(C)C)c(F)c2)[C@H](CC)CN1c1cc(=O)n(C)c2cn(CC#N)nc12` (single isomer, unassigned) [Compound A3b], for which the half-maximal inhibitory concentration (IC50) at DGKα is 5900 nM; against DGKζ, 551 nM.

Take `CC[C@H]1CN(C(C)c2ccc(C(=O)N(C)C)c(F)c2)[C@H](CC)CN1c1cc(=O)n(C)c2cn(CC#N)nc12` (single isomer, unassigned) [Compound A4a]: the IC50 came to 2690 nM against DGKα and 569 nM on DGKζ.

For `CC[C@H]1CN(C(C)c2ccc(C(=O)N(C)C)c(F)c2)[C@H](CC)CN1c1cc(=O)n(C)c2cn(CC#N)nc12` (single isomer, unassigned) [Compound A4b], the figures for the 50% inhibitory concentration (IC50) against DGKα and against DGKζ were 4840 nM and 3170 nM, respectively.

For the compound `CC[C@H]1CN(C(C)c2ccc(OC(C)C)cn2)[C@H](CC)CN1c1cc(=O)n(C)c2cn(CC#N)nc12` (single isomer, unassigned) [Compound A5la], the IC50 on DGKα turned out to be 26 nM; on DGKζ it was 138 nM.

With `CC[C@H]1CN(C(C)c2ccc(OC(F)F)cc2)[C@H](CC)CN1c1cc(=O)n(C)c2cn(CC#N)nc12` (single isomer, unassigned) [Compound A19a], the IC50 against DGKα is 22 nM; at DGKζ it was 130 nM.

As to `CC[C@H]1CN(C(C)c2ccc(OC(F)F)cc2)[C@H](CC)CN1c1cc(=O)n(C)c2cn(CC#N)nc12` (single isomer, unassigned) [Compound A19b], the IC50 against DGKα came to 289 nM; on DGKζ it was 4900 nM.

On to `CC[C@H]1CN(C(C)c2ccc(OC3COC3)c(C)c2)[C@H](CC)CN1c1cc(=O)n(C)c2cn(CC#N)nc12` (single isomer, unassigned) [Compound A21a], for which the IC50 on DGKα is 2890 nM; against DGKζ, 1470 nM.

Consider `CC[C@H]1CN(C(C)c2ccc(OC3COC3)c(C)c2)[C@H](CC)CN1c1cc(=O)n(C)c2cn(CC#N)nc12` (single isomer, unassigned) [Compound A21b], for which the IC50 at DGKα was over 150000 nM; on DGKζ, over 10000 nM.

For `CC[C@H]1CN(C(C)c2ccc(OC3COC3)c(F)c2)[C@H](CC)CN1c1cc(=O)n(C)c2cn(CC#N)nc12` (single isomer, unassigned) [Compound A23a], the IC50 against DGKα came to 2350 nM; against DGKζ, 3740 nM.

As for `CC[C@H]1CN(C(C)c2ccc(OC3COC3)c(F)c2)[C@H](CC)CN1c1cc(=O)n(C)c2cn(CC#N)nc12` (single isomer, unassigned) [Compound A23b], the half-maximal inhibitory concentration (IC50) is 138 nM on DGKα and 534 nM at DGKζ.

Regarding `CC[C@H]1CN(C(C)c2cc(F)c(CN(C)C)c(F)c2)[C@H](CC)CN1c1cc(=O)n(C)c2cn(CC#N)nc12` (single isomer, unassigned) [Compound A25a], the half-maximal inhibitory concentration (IC50) was found to be 3380 nM against DGKα and 246 nM against DGKζ.

For the compound `CC[C@H]1CN(C(C)c2cc(F)c(CN(C)C)c(F)c2)[C@H](CC)CN1c1cc(=O)n(C)c2cn(CC#N)nc12` (single isomer, unassigned) [Compound A25b], the concentration for half-maximal inhibition (IC50) on DGKα amounted to 6020 nM; against DGKζ, 2200 nM.

With `CC[C@H]1CN(C(C)c2ccc(CN3CCCC3)cc2)[C@H](CC)CN1c1cc(=O)n(C)c2cn(CC#N)nc12` (single isomer, unassigned) [Compound A26a], the IC50 at DGKα came to 1440 nM; against DGKζ it was 4090 nM.

`CC[C@H]1CN(C(C)c2ccc(CN3CCCC3)cc2)[C@H](CC)CN1c1cc(=O)n(C)c2cn(CC#N)nc12` (single isomer, unassigned) [Compound A26b]: the results for the IC50 on DGKα and against DGKζ were 24700 nM and over 10000 nM, respectively.

In the case of `CC[C@H]1CN(C(C)c2ccc(OC)cc2)[C@H](CC)CN1c1cc(=O)n(C)c2cn(CC#N)nc12` (single isomer, unassigned) [Compound A34a], the IC50 came to 37 nM against DGKα and 75 nM against DGKζ.

Turning to `CC[C@H]1CN(C(C)c2ccc(OC)cc2)[C@H](CC)CN1c1cc(=O)n(C)c2cn(CC#N)nc12` (single isomer, unassigned) [Compound A34b], the IC50 on DGKα amounted to 596 nM; against DGKζ, 2940 nM.

Take `CC[C@H]1CN(C(C)c2nc(C)c(C)s2)[C@H](CC)CN1c1cc(=O)n(C)c2cn(CC#N)nc12` (single isomer, unassigned) [Compound A35a]: the IC50 against DGKα stood at 131 nM; against DGKζ it was 234 nM.

Turning to `CC[C@H]1CN(C(C)c2nc(C)c(C)s2)[C@H](CC)CN1c1cc(=O)n(C)c2cn(CC#N)nc12` (single isomer, unassigned) [Compound A35b], the half-inhibitory concentration (IC50) against DGKα is over 150000 nM; against DGKζ it was 2420 nM.

For the compound `CC[C@H]1CN(C(C)c2nc3c(s2)CCCC3)[C@H](CC)CN1c1cc(=O)n(C)c2cn(CC#N)nc12` (single isomer, unassigned) [Compound A36a], the 50% inhibitory concentration (IC50) on DGKα was determined as 164 nM; against DGKζ, 57 nM.

For `CC[C@H]1CN(C(C)c2nc3c(s2)CCCC3)[C@H](CC)CN1c1cc(=O)n(C)c2cn(CC#N)nc12` (single isomer, unassigned) [Compound A36b], the IC50 at DGKα was determined as 2110 nM; against DGKζ, 946 nM.

Consider `CC[C@H]1CN(C(C)c2ccc(C3CC3)nc2)[C@H](CC)CN1c1cc(=O)n(C)c2cn(CC#N)nc12` (single isomer, unassigned) [Compound A38a], for which the IC50 at DGKα worked out at 810 nM; against DGKζ, 126 nM.

In the case of `CC[C@H]1CN(C(C)c2ccc(C3CC3)nc2)[C@H](CC)CN1c1cc(=O)n(C)c2cn(CC#N)nc12` (single isomer, unassigned) [Compound A38b], the IC50 on DGKα stood at 2350 nM; against DGKζ it was 1180 nM.

In the case of `CC#CCn1cc2c(n1)c(N1C[C@@H](CC)N(C(C)c3ccc(C4CC4)nc3)C[C@@H]1CC)cc(=O)n2C` (single isomer, unassigned) [Compound A39a], the IC50 against DGKα came to 33 nM; against DGKζ, 464 nM.

As to `CC#CCn1cc2c(n1)c(N1C[C@@H](CC)N(C(C)c3ccc(C4CC4)nc3)C[C@@H]1CC)cc(=O)n2C` (single isomer, unassigned) [Compound A39b], the IC50 amounted to 237 nM at DGKα and 2360 nM against DGKζ.

As for `CC[C@H]1CN(C(C)c2ccc(COC)nc2)[C@H](CC)CN1c1cc(=O)n(C)c2cn(CC#N)nc12` (single isomer, unassigned) [Compound A42a], the IC50 against DGKα worked out at 1960 nM; against DGKζ, 315 nM.

On to `CC[C@H]1CN(C(C)c2ccc(COC)nc2)[C@H](CC)CN1c1cc(=O)n(C)c2cn(CC#N)nc12` (single isomer, unassigned) [Compound A42b], for which the IC50 on DGKα worked out at 6640 nM; against DGKζ, 5060 nM.

As to `CC[C@H]1CN(C(C)c2ccc(C3CC3)nc2F)[C@H](CC)CN1c1cc(=O)n(C)c2cn(CC#N)nc12` (single isomer, unassigned) [Compound A45a], the IC50 amounted to 202 nM on DGKα and 30 nM against DGKζ.

Take `CC[C@H]1CN(C(C)c2ccc(C3CC3)nc2F)[C@H](CC)CN1c1cc(=O)n(C)c2cn(CC#N)nc12` (single isomer, unassigned) [Compound A45b]: the IC50 on DGKα was found to be 728 nM; against DGKζ it was 865 nM.

Turning to `CC[C@H]1CN(C(C)c2ccc(C(C)(C)F)nc2)[C@H](CC)CN1c1cc(=O)n(C)c2cn(CC#N)nc12` (single isomer, unassigned) [Compound A46a], the half-maximal inhibitory concentration (IC50) came out at 406 nM on DGKα and 6.4 nM against DGKζ.

The compound `CC[C@H]1CN(C(C)c2ccc(N)nc2)[C@H](CC)CN1c1cc(=O)n(C)c2cn(CC#N)nc12` (single isomer, unassigned) [Compound A187b] showed an IC50 against DGKα of 11900 nM.
